Laboratory results taken from patent US20030181362A1, “Receptor” (priority 2000, published 2003).

Experiments:
[1] = test system: Classical Pathway; assay: Inhibition of Classical pathway-mediated lysis of antibody-sensitized sheep erythrocytes in normal human serum; assay type: biochemical
Method: To determine whether the interaction of C2 with ShTORE-ed-1 could affect the normal interaction of C2 with other complement proteins and thereby inhibit complement activation, the effect of the TORE-ed-1 peptide on complement activation was assessed. The ability of the TORE-ed-1 peptide to inhibit the lysis of antibody-sensitized sheep erythrocytes, in the presence of normal human serum, NHS (and therefore in the presence of complement proteins C1 through to […]), in a dose-dependent manner, was used as a measure of its ability to inhibit the Classical Pathway. The extent of haemolysis was determined by spectrophotometric measurement of haemoglobin release at 412 nm. An IC60 value of approximately 10 μM was found (FIG. 11A and B).
(§1) FIG. 11(A) and (B) Effect of increasing TORE-ed1 peptide on the complement-mediated lysis of sensitized sheep red blood cells in the presence of normal human serum as a source of complement. FIG. 11(C) and (D) Effect of increasing TORE-ed1 peptide preincubated with C2 on haemolysis in the presence of human serum in which C2 is limiting. FIG. 11(E) effect of various Tore peptides and Tore related C4b-derived peptides on complement mediated lysis.

[2] = Immune complex inflammation in mouse ear (human albumin i.v., anti-HA s.c.); assay type: in vivo, Mice
Method: FIG. 22: Mice (7 or 8 per group) injected with human albumin (HA) 10 mg/kg i.v. (200 μl of a solution 1 mg/ml in Evans blue1%). After 5 min anti-HA injected s.c. in situ (in ear). Test compounds then injected and after 4 h evaluations made for reduction of inflammation. Oedema was evaluated by weight. Plasma extravasation as measure of microvascular permeability or haemorrage was measured by extraction of extravasated Evan's blue dye with formamide from injected ears. As well as subcutaneous (s.c.) administration of H17 (the test compound of formula HEVKIKHFSPY at two concentrations), it was also given intravenously (0.1 mg/kg). The positive control for reduction in inflammation in this experiment was cromolyn.

[3] = molecular target: T1, human complement C2 (Homo sapiens, UniProt P06681); assay: Haemolysis with C2-deficient human serum reconstituted with C2, peptide preincubated with C2; assay type: biochemical; conditions: peptide preincubated with C2 before addition to C2-depleted serum
T1 sequence (P06681 21-752): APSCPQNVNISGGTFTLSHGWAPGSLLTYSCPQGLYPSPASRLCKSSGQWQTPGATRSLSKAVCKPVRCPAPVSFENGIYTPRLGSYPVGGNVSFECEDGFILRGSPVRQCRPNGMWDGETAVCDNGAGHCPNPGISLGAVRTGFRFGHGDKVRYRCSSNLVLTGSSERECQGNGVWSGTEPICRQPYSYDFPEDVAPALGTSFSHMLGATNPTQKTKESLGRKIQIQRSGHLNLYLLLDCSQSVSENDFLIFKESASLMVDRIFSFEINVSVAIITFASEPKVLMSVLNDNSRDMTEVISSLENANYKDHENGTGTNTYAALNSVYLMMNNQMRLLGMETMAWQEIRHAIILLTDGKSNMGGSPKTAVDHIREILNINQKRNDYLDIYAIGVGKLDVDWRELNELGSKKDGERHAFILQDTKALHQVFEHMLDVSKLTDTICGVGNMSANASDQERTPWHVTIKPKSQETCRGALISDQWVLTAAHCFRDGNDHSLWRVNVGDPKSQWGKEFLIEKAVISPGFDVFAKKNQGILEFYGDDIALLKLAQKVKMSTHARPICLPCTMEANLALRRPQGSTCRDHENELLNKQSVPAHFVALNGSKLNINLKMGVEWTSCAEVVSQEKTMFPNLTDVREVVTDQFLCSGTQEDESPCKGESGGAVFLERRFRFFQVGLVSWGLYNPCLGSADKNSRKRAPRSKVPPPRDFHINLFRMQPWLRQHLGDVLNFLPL
Method: As an additional confirmation that TORE-ed-1 specifically binds to human complement C2, C2-deficient human serum with enough C2 added to reconstitute haemolytic activity, was used in the same assay.
as §1

[4] = molecular target: T1, human complement C2; assay: Receptor affinity chromatography with immobilised ed-1 peptide; assay type: binding; design: One litre of serum-free medium which had maintained the cells; endogenous in cells; host or cells: THP-1 (human macrophage-like cells), conditioned serum-free medium
Description: In order to identify a likely ligand, the putative ligand-binding domain of ShTORE, extracellular domain 1 (ed-1), was used in receptor affinity chromatography. It was assumed that the cells expressing the receptor themselves produced the ligand in an “autocrine” manner. The cells chosen were the macrophage-like (human) THP-1 cells. These were adapted to grow in conditioned, serum-free medium in order to increase the chances of finding the ligand for TORE. One litre of serum-free medium which had maintained the cells, and as a control one litre of serum-free medium without cells, was passed through identical epoxy-activated Sepharose 6B columns with the 27-mer ShTORE-ed-1 peptide attached. Fractions were collected from a low pH elution and 20 μl aliquots run on SDS-PAGE. An 83 kDa protein band was identified (FIG. 10A, lane 1). The fraction was concentrated, transferred to problot and stained with Coomassie Brilliant blue. The band was then excised and the N-terminal sequence determined. The resulting six residues indicated the protein to be human complement protein C2. The fully glycosylated version of C2, however should have been 102 kDa.

FEVKITPGKPY [C4b β chain derived peptide]
complement inhibition in vitro [1]: shown to inhibit complement in vitro

HEVKIKHFSPY (shistosoma haematobium) [H17]
complement inhibition in vitro [1]: capable of effective complement inhibition in vitro | reduction of haemorrage (Evans blue extravasation) ([2]; 1 μg dose, 4 h): 30% | reduction of oedema (by weight) ([2]; 1 μg dose, 4 h): 28%

HEVKIKSPY [TOR-ed1 peptide; probably a misprint of …]
inflammation mediated by immune complexes and Classical pathway complement (Type III hypersensitivity) ([2]; in vivo): reduce inflammation

NH2-Met-Ser-Pro-Ser-Leu-Val-Ser-Asp-Thr-Gln-Lys-His-Glu-Arg-Gly-Ser-His-Glu-Val-Lys-Ile-Lys-His-Phe-Ser-Pro-Tyr-CO2H (H-MSPSLVSDTQKHERGSHEVKIKHFSPY-OH) [TORE-ed-1 peptide, 27-mer peptide of extracellular domain 1 of ShTORE]
complement inhibition in vitro [1]: inhibit complement action in vitro | concentration able to inhibit the haemolytic activity of C2 from the Classical pathway ([1]; normal human serum): 10 µM | IC60, inhibition of lysis of antibody-sensitized sheep erythrocytes ([1]; normal human serum, haemoglobin release at 412 nm): approximately 10 μM | inhibition of haemolytic activity [3]: inhibit haemolytic activity | interaction with C2 [4]: interact with human complement protein C2

SSTSDIRLVIHTKTGPIYIKST (shistosoma haematobium) [SEQ ID NO 2]
complement inhibition in vitro [1]: inhibit complement action in vitro
